Measurements as given in PubChem BioAssay (NCI).
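These data come from cells grown in 96-well plates and exposed to compound for 48 hours at five concentrations. TGI: concentration producing complete growth inhibition.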

Columns and labels:
Experiment in all cases: inhibition of tumour cell growth, NCI panel, 48 h
[1] = system: XF 498 CNS
[2] = system: DMS 273 small cell lung
[3] = system: M19-MEL melanoma
[4] = system: DLD-1 colon
[5] = system: KM20L2 colon
[6] = system: HOP-18 NSCLC
[7] = system: DMS 114 small cell lung
[8] = system: SNB-78 CNS
[9] = system: RXF-631 renal

SMILES | TGI [1] | TGI [2] | TGI [3] | TGI [4] | TGI [5] | TGI [6] | TGI [7] | TGI [8] | TGI [9]
COc1cc2c(cc1O)[C@H](C)C(c1ccc(Cl)cc1)O2 (stereo partly specified) | 29.4 µM | 34.5 µM | 33 µM | 79.6 µM | 66.2 µM | > 100 µM | 30.8 µM | > 100 µM | 50.5 µM
C=CCN1C(=O)CS/C1=N\NC(=O)c1c(C)nc2sccn12 | > 100 µM | > 100 µM | > 100 µM | > 100 µM | > 100 µM | > 100 µM | > 100 µM | – | > 100 µM
COC(=O)/C(=C/c1ccc(OC)cc1)C(C(=O)O)=C(C)C | – | > 100 µM | > 100 µM | > 100 µM | > 100 µM | > 100 µM | > 100 µM | > 100 µM | –
CN(C)[C@@H]1C(=O)C(C(N)=O)=C(O)[C@@]2(O)C(=O)C3=C(O)c4c(O)cccc4C[C@H]3C[C@@H]12 | – | – | 3.12 µM | 10.8 µM | 6.18 µM | 3.56 µM | 6.41 µM | – | –
CC(C)(C)C1CC[C@H]2c3c([nH]c4ccc(Br)cc34)[C@H]3C(=O)N(c4ccccc4)C(=O)[C@H]3[C@H]2C1 (stereo partly specified) | 38.2 µM | 22.4 µM | 49.8 µM | > 100 µM | > 100 µM | > 100 µM | 69.1 µM | 33.4 µM | 19.5 µM
O=C(/C=C/c1ccc(OCCCCCCCCCCOc2ccc(/C=C/C(=O)c3ccc(Cl)cc3)cc2)cc1)c1ccc(Cl)cc1 | – | > 100 µM | – | > 100 µM | > 100 µM | > 100 µM | > 100 µM | > 100 µM | > 100 µM
Cc1ccc(-c2cc(-c3ccco3)nc(N)n2)o1 | > 100 µM | > 100 µM | – | – | > 100 µM | – | – | > 100 µM | –
On1c(-c2ccccc2)c(-c2c(-c3ccccc3)n(O)c3ccccc23)c2ccccc21 | 71 µM | > 100 µM | > 100 µM | > 100 µM | – | 86.3 µM | 66 µM | > 100 µM | –
O=C(NCCNCCO)N/N=C/c1cccc([N+](=O)[O-])c1 | – | > 100 µM | > 100 µM | > 100 µM | > 100 µM | > 100 µM | > 100 µM | > 100 µM | –
CCCCOC1CC2(c3ccc(OC)cc3)C(=O)c3ccccc3N2O1 (stereo unspecified) | > 10 µM | > 10 µM | > 10 µM | – | > 10 µM | – | 99.5 µM | > 10 µM | > 10 µM
N=C(N)/N=C(/C=C/c1ccccc1)CC1OC(=O)c2ccccc21 (stereo unspecified) | > 100 µM | > 100 µM | > 100 µM | > 100 µM | > 100 µM | – | > 100 µM | – | –
Oc1c(Cl)c2nccnc2c2ccccc12 | > 100 µM | > 100 µM | > 100 µM | > 100 µM | > 100 µM | > 100 µM | > 100 µM | > 100 µM | –
O=c1[nH]cnc2c1nnn2CCCn1nnc2c(=O)[nH]cnc21 | > 100 µM | > 100 µM | > 100 µM | > 100 µM | > 100 µM | > 100 µM | > 100 µM | > 100 µM | –
O=C(CCN1CCCCC1CCO)Nc1ccc2c(c1)C(=O)c1ccc(NC(=O)CCN3CCCCC3CCO)cc1C2=O (stereo unspecified) | – | 12.5 µM | 74.9 µM | 14.9 µM | 38 µM | 8.41 µM | 14.7 µM | 20.1 µM | –
COC(=O)OCC1OC(N2C(=O)NC(=O)C(I)C2N=[N+]=[N-])CC1OC(=O)OC (stereo unspecified) | > 100 µM | > 100 µM | > 100 µM | > 100 µM | > 100 µM | – | – | > 100 µM | > 100 µM
c1ccc2[nH]c(-c3nc4ccccc4o3)nc2c1 | > 100 µM | > 100 µM | > 100 µM | > 100 µM | > 100 µM | – | > 100 µM | > 100 µM | –
CS(=O)(=O)NNS(=O)(=O)c1ccc(Br)cc1 | > 100 µM | > 100 µM | > 100 µM | > 100 µM | > 100 µM | > 100 µM | > 100 µM | > 100 µM | –
